Measured values from patent US10030027B2, “Soluble guanylate cyclase stimulators” (MERCK SHARP & DOHME CORP., priority 2015, dated 2018).

Assays:
[1] = target: human recombinant sGC enzyme (Homo sapiens (Human), UniProt Q02108+Q02153); assay: Size Exclusion Chromatography (SEC) competition binding assay using [3H] Ex-77B as the radioligand; conditions: [3H] Ex-77B radioligand, 24 hours at 37° C.
Protocol: Binding Assay: The binding potencies of sGC compounds to the human recombinant sGC enzyme were determined in a Size Exclusion Chromatography (SEC) competition binding assay using [^3H] Ex-77B as the radioligand. [^3H] Ex-77B was prepared using a standardardized tritium exchange procedure. The parent (non-labeled) molecule was first iodinated then a Pd-catalyzed iodine to tritium exchange provided the labeled compound. […] Assays were conducted in 96-well plates in a total volume of 200 μL. […] Non-specific binding was defined by competition with 1 μM of Ex-77B. After the incubation period, the binding mixtures were loaded onto the gel-filtration plate (ThermoFischer Cat. No. 89808) pre-equilibrated with binding buffer and spun at 1000×g for 3 min at 4° C. on a Bench top centrifuge. The collected eluates in White Frame Clear Well Isoplates (Perkin Elmer Cat #6005040) received 100 μl of UltimaGold scintillation cocktail. The sealed plates were shaken vigorously and span, and counted after 6 hours with a Wallac Microbeta TriLux 1450 LSC & Luminescence Counter (Perkin Elmer). Data from competition experiments were analyzed to determine Ki values using one site fit Ki equation.

sGC α1/β1 heterodimer = sGC α1/β1 heterodimer (Homo sapiens (Human), UniProt Q02108+Q02153); assay: Cell-based sGC functional assay (cyclic GMP assay for sGC activator: CASA assay); set-up: % Activation: concentration or dose not given beside the values; conditions: CHO-K1/sGC cells; for Emax: CHO-K1, activity expressed as percentage of compound A (standard), read-out: % Activation; for EC50: inflection point, 4P fit, read-out: IP
Excerpt: Cell-Based sGC Functional Assay (Cyclic GMP Assay for sGC Activator: CASA Assay)
Soluble guanylate cyclase (sGC) is a heme-containing enzyme that converts GTP to secondary messenger cGMP. Increases in cGMP levels affect several physiological processes including vasorelaxation through multiple downstream pathways. […] Heme-dependent activators (HDAs) preferentially activate sGC containing a ferrous heme group. To determine the effect of sGC activators on enzyme activity, the CASA assay was developed to monitor the generation of cGMP in a cell line that stably expresses the heterodimeric sGC protein.
A CHO-K1 cell line stably expressing the sGC α1/β1 heterodimer was generated using a standard transfection protocol. CHO-K1 cells were transfected with plasmids pIREShyghsGCα1 and pIRESneo-hsGCβ1 simultaneously using FUGENE reagent. Clones that stably express both subunits were selected with hygromycin and neomycin for ˜2 weeks. Clone #7 was chosen for the assay and was designated CHO-K1/sGC. CHO-K1/sGC cells were maintained in F-K12 medium containing 10% heat-inactivated Fetal Bovine Serum (FBS), 100 μg/mL penicillin/streptomycin, 0.5 mg/mL hygromycin and 0.25 mg/mL G418. The cells were then cryopreserved in LN2. On the day of the assay, the cells were thawed and resuspended in EBSS Assay Buffer (Sigma, E3024) supplemented with 5 mM MgCl2, 10 mM HEPES (4-(2-hydroxyethyl)piperazine-1-ethanesulfonic acid) and 0.05% BSA (bovine serum albumin) (EAB) and cell density was then adjusted to 2.25×10^5/mL with EAB. IBMX (3-isobutyl-1-methylxanthin, 0.5 mM) was added to inhibit degradation of cGMP. Compounds were diluted from DMSO stock solutions and added to the assay at a final DMSO concentration of 2.5%. Cells were pre-incubated in the presence and absence of 1 μM of Diethylenetriamine/nitric oxide adduct (DETA-NO; Sigma, 17018) for 30 min at 25° C. Compounds are subsequently added and incubated for 1 hr at 37° C. At the end of the incubation period, the reaction was terminated and the cells were lysed with the detection reagents from Cisbio Kits. The level of intracellular cGMP was determined using an HTRF-based assay kit (CisBio, 62GM2PEC), which detects the displacement of a fluorescence labeled cGMP from its specific antibody. The cGMP produced by test compounds was directly compared to the maximum cGMP production (this value was set to equal 100% activation.) of the published sGC-HDA compound A:
(Example 1 in WO 2010/065275, published Jun. 10, 2010). The test compounds' activity were then expressed as a percentage of compound A, the standard in every experiment. This percent activation was calculated either in the presence or absence of DETA-NO which was then plotted. Inflection points (IP) and maximum fold induction was derived using Abase analysis software for 4P fit.

Row | Ki [1] [nM] | Emax (sGC α1/β1 heterodimer) [%] | EC50 (sGC α1/β1 heterodimer) [nM] | % Activation (sGC α1/β1 heterodimer; activity expressed as percentage of compound A (standard)) [%] | SMILES
1 | 0.184 | 116 | 1230 |  | CC1(c2nc3cc(C(=O)O)ccc3s2)C(=O)Nc2nc(-c3nn(Cc4ccccc4F)c4cc(Cl)ccc34)nc(N)c21 (centres unmarked) [Example 130A, 2-{4-amino-2-[6-chloro-1-(2-fluorobenzyl)-1H-indazol-3-yl]-5-methyl-6-oxo-6,7-dihydro-5H-pyrrolo[2,3-d]pyrimidin-5-yl}-1,3-benzothiazole-5-carboxylic acid]
2 | 0.28 |  |  |  | CC(C)(Cc1coc(C2(C)C(=O)Nc3nc(-c4nn(CC5CCCCO5)c5ccccc45)nc(N)c32)n1)C(=O)O (single isomer, unassigned) [Example 230AB, 3-{2-[4-amino-5-methyl-6-oxo-2-{1-[tetrahydro-2H-pyran-2-ylmethyl]-1H-indazol-3-yl}-6,7-dihydro-5H-pyrrolo[2,3-d]pyrimidin-5-yl]-1,3-oxazol-4-yl}-2,2-dimethyl-propanoic acid]
3 | 0.461 |  |  |  | CC(C)(Cc1coc(C2(C)C(=O)Nc3nc(-c4nn(CC5CCCCO5)c5cc(F)ccc45)nc(N)c32)n1)C(=O)O (single isomer, unassigned) [Example 134AB, 3-{2-[4-amino-2-{6-fluoro-1-[tetrahydro-2H-pyran-2-ylmethyl]-1H-indazol-3-yl}-5-methyl-6-oxo-6,7-dihydro-5H-pyrrolo[2,3-d]pyrimidin-5-yl]-1,3-oxazol-4-yl}-2,2-dimethylpropanoic acid]
4 | 0.617 |  |  |  | CC(C)(Cc1coc(C2(C)C(=O)Nc3nc(-c4nn(CC5CCCCO5)c5ncccc45)nc(N)c32)n1)C(=O)O (single isomer, unassigned) [Example 124AB, 3-{2-[4-amino-5-methyl-6-oxo-2-{1-[tetrahydro-2H-pyran-2-ylmethyl]-1H-pyrazolo[3,4-b]pyridin-3-yl}-6,7-dihydro-5H-pyrrolo[2,3-d]pyrimidin-5-yl]-1,3-oxazol-4-yl}-2,2-dimethylpropanoic acid]
5 | 0.333 |  |  |  | C[C@@]1(c2ccc(CCc3nn[nH]n3)cc2)C(=O)Nc2nc(-c3nn(Cc4ncccc4F)c4ccccc34)nc(N)c21 [Example 245B, (S)-5-{4-[2-(2H-tetrazol-5-yl)ethyl]phenyl}-4-amino-2-{1-[(3-fluoro-pyridin-2-yl)methyl]-1H-indazol-3-yl}-5-methyl-5,7-dihydro-6H-pyrrolo[2,3-d] pyrimidin-6-one]
6 | 0.42 |  |  |  | CC1(c2ccc(C(=O)O)cc2)C(=O)Nc2nc(-c3nn(CCC(F)(F)C(F)(F)F)c4cc(Cl)ccc34)nc(N)c21 (centres unmarked) [Example 155B, 4-{4-amino-2-[6-chloro-1-(3,3,4,4,4-pentafluorobutyl)-1H-indazol-3-yl]-5-methyl-6-oxo-6,7-dihydro-5H-pyrrolo[2,3-d]pyrimidin-5-yl} benzoic acid]
7 |  | 87 | 85 |  | C[C@@]1(c2ccc(CCC(=O)O)cc2)C(=O)Nc2nc(-c3nn(Cc4ccccc4F)c4ccc(Cl)cc34)nc(N)c21 [Example 73B, (S)-3-(4-{4-amino-2-[5-chloro-1-(2-fluorobenzyl)-1H-indazol-3-yl]-5-methyl-6-oxo-6,7-dihydro-5H-pyrrolo[2,3-d]pyrimidin-5-yl}phenyl)propanoic acid]
8 |  |  |  | 98.4 | CC1CCC(Cn2nc(-c3nc(N)c4c(n3)NC(=O)C4(C)c3nc(CC(C)(C)C(=O)O)co3)c3ccc(F)cc32)CC1 (racemic) [Example 137AB, 3-{2-[4-amino-2-{6-fluoro-1-[4-methylcyclohexylmethyl]-1H-indazol-3-yl}-5-methyl-6-oxo-6,7-dihydro-5H-pyrrolo[2,3-d]pyrimidin-5-yl]-1,3-oxazol-4-yl}-2,2-dimethylpropanoic acid]
9 |  | 105 | 432 |  | CC1(c2nc(CCCC(=O)O)cs2)C(=O)Nc2nc(-c3nn(Cc4ccccc4F)c4ccccc34)nc(N)c21 (centres unmarked) [Example 55A, 4-(2-{4-amino-2-[1-(2-fluorobenzyl)-1H-indazol-3-yl]-5-methyl-6-oxo-6,7-dihydro-5H-pyrrolo[2,3-d]pyrimidin-5-yl}thiazol-4-yl)butanoic acid]
10 |  | 79 | 122 |  | CC1(c2ccc(CCCC(=O)O)cc2)C(=O)Nc2nc(-c3nn(Cc4ccccc4F)c4cc(Cl)ccc34)nc(N)c21 (centres unmarked) [Example 115A, 4-(4-{4-amino-2-[6-chloro-1-(2-fluorobenzyl)-1H-indazol-3-yl]-5-methyl-6-oxo-6,7-dihydro-5H-pyrrolo[2,3-d]pyrimidin-5-yl}phenyl)butanoic acid]
11 |  | 80 | 42 |  | CC(C)(Cc1coc(C2(C)C(=O)Nc3nc(-c4nn(Cc5ccccc5F)c5ccc(F)cc45)nc(N)c32)n1)C(=O)O (centres unmarked) [Example 72A, 3-(2-{4-amino-2-[5-fluoro-1-(2-fluorobenzyl)-1H-indazol-3-yl]-5-methyl-6-oxo-6,7-dihydro-5H-pyrrolo[2,3-d]pyrimidin-5-yl}oxazol-4-yl)-2,2-dimethylpropanoic acid]
12 | 0.182 |  |  |  | CC1(c2cccc(-c3nn[nH]n3)c2)C(=O)Nc2nc(-c3nn(CCC(F)(F)C(F)(F)F)c4cc(Cl)ccc34)nc(N)c21 (single isomer, unassigned) [Example 251B, 4-amino-2-[6-chloro-1-(3,3,4,4,4-penta-fluorobutyl)-1H-indazol-3-yl]-5-methyl-5-[3-(1H-tetrazol-5-yl)phenyl]-5,7-dihydro-6H-pyrrolo[2,3-d] pyrimidin-6-one]
13 |  | 102 | 257 |  | CC1(c2cccc(CCC(=O)O)c2)C(=O)Nc2nc(-c3nn(Cc4ccccc4F)c4cc(Cl)ccc34)nc(N)c21 (centres unmarked) [Example 48A, 3-(3-{4-amino-2-(6-chloro-1-(2-fluorobenzyl)-1H-indazol-3-yl)-5-methyl-6-oxo-6,7-dihydro-5H-pyrrolo[2,3-d]pyrimidin-5-yl}phenyl)propanoic acid]
14 |  | 102 | 124 |  | CC1(c2cccc(CCC(=O)O)c2)C(=O)Nc2nc(-c3nn(Cc4ccccc4F)c4ccccc34)nc(N)c21 (centres unmarked) [Example 53A, 3-(3-{4-amino-2-[1-(2-fluorobenzyl)-1H-indazol-3-yl]-5-methyl-6-oxo-6,7-dihydro-5H-pyrrolo[2,3-d]pyrimidin-5-yl}phenyl)propanoic acid]
15 |  | 69 | 302 |  | CC1(c2ccc(CC(=O)O)cc2)C(=O)Nc2nc(-c3nn(Cc4ccccc4F)c4cc(Cl)ccc34)nc(N)c21 (centres unmarked) [Example 117A, 2-(4-{4-amino-2-[6-chloro-1-(2-fluorobenzyl)-1H-indazol-3-yl]-5-methyl-6-oxo-6,7-dihydro-5H-pyrrolo[2,3-d]pyrimidin-5-yl}phenyl)acetic acid]
16 | 0.783 |  |  |  | CC1CCC(Cn2nc(-c3nc(N)c4c(n3)NC(=O)[C@@]4(C)c3nc(CC(C)(C)C(=O)O)cs3)c3cccnc32)CC1 (single isomer, unassigned) [Example 125AA]
17 | 0.183 |  |  |  | CC1(c2cc(C(=O)O)ccn2)C(=O)Nc2nc(-c3nn(Cc4ccccc4F)c4cc(Cl)ccc34)nc(N)c21 (centres unmarked) [Example 219A, 2-{4-amino-2-[6-chloro-1-(2-fluorobenzyl)-1H-indazol-3-yl]-5-methyl-6-oxo-6,7-dihydro-5H-pyrrolo[2,3-d]pyrimidin-5-yl} pyridine-4-carboxylic acid]
